Results as given in ChEMBL document CHEMBL5230139, “Inhibitors of Eukaryotic Translational Machinery as Therapeutic Agents” (J Med Chem, 2021).
Numbered stars: 1 amine (or outer) side, 2 acyl side, 3 side chain; on linkers, the order of the positions; unused ones are H or OH. Bridge positions count the residues as written; N and C are the ends. Square brackets hold non-standard residues; d marks the D form. Peptide text beside a SMILES is read from it. X1 = CC[C@H](C)[C@@H](N[*:1])[C@@H](O)CC(=O)O[C@H](C(=O)[C@H](C)C(=O)[*:2])C(C)C; NMeY = CN[C@@H](Cc1ccc(O)cc1)C(=O)O; dNMeL = CN[C@H](CC(C)C)C(=O)O

How the values were obtained:
[1] = Cytotoxicity against mouse NIH/3T3 cells assessed as reduction in cell viability incubated for 4 days by SRB assay; format: toxicity, cell-based, NIH3T3
[2] = Inhibition of EIF1A in human Jurkat cells assessed as reduction in T-cell receptor-mediated IL-2 expression; format: cell-based
A549 [3] = test: Antiproliferative activity against human A549 cells assessed as cell growth inhibition incubated for 24 by 14C-thymidine incorporation assay; format: functional, cell-based
HCT-116 [4] = test: Antiproliferative activity against human HCT-116 cells assessed as cell growth inhibition incubated for 24 by 14C-thymidine incorporation assay; format: functional, cell-based
3T3-L1 = test: Cytotoxicity against mouse 3T3-L1 adipocyte assessed as inhibition of fat accumulation incubated for 30 mins; format: toxicity, cell-based; conditions: 3T3-L1, 0.5 h
HCT-116 [5] = test: Antiproliferative activity against human HCT-116 cells assessed as cell growth inhibition; format: functional, cell-based
[6] = Inhibition of EIF1A (unknown origin); parameters: species or system Homo sapiens
L1210 = test: Anticancer activity against mouse L1210 cells allografted in mouse assessed as increase in survival rate; format: functional
[7] = (§1) In vivo activation of dystrophin in mouse H2K mdx cells assessed as increase in production of dystrophin protein; format: functional
P388 [8] = test: Antiproliferative activity against mouse P388 cells assessed as cell growth inhibition incubated for 3 days; format: functional, cell-based; conditions: P388, 72 h
A549 [9] = test: Antiproliferative activity against human A549 cells assessed as cell growth inhibition incubated for 3 days; format: functional, cell-based; conditions: A549, 72 h
HT-29 = test: Antiproliferative activity against human HT-29 cells assessed as cell growth inhibition incubated for 3 days; format: functional, cell-based; conditions: HT-29, 72 h
SK-MEL-28 = test: Antiproliferative activity against human SK-MEL-28 cells assessed as cell growth inhibition incubated for 3 days; format: functional, cell-based; conditions: SK-MEL-28, 72 h
P388 [10] = test: Inhibition of protein synthesis in mouse P388 cells measured after 72 hrs; format: functional, cell-based; conditions: P388, 72 h
P388 [11] = test: Inhibition of DNA synthesis in mouse P388 cells measured after 72 hrs; format: functional, cell-based; conditions: P388, 72 h
P388 [12] = test: Inhibition of RNA synthesis in mouse P388 cells measured after 72 hrs; format: functional, cell-based
HeLa [13] = test: Antiproliferative activity against human HeLa cells assessed as cell growth inhibition; format: functional, cell-based
[14] = Antiproliferative activity against mouse JB6 Cl 41-5a cells assessed as cell growth inhibition; format: functional, cell-based
SARS-CoV-2 [15] = test: Antiviral activity against SARS-CoV-2 infected in African green monkey Vero E6 cells assessed as inhibition of viral replication; format: functional, organism-based; conditions: Severe acute respiratory syndrome coronavirus 2, Vero C1008
SARS-CoV-2 [16] = test: Antiviral activity against SARS CoV-2 clinical isolate 2019-nCoV infected with African green monkey Vero E6 cells by qRT-PCR analysis; format: functional, organism-based; conditions: Severe acute respiratory syndrome coronavirus 2, 2019-nCoV, Vero C1008
HeLa [17] = test: Antiproliferative activity against human HeLa cells assessed as cell growth inhibition by [35S] methionine incorporation assay; format: functional, cell-based
U-937 = test: Antiproliferative activity against human U-937 cells assessed as cell growth inhibition incubated for 48 hrs by MTS assay; format: functional, cell-based; conditions: U-937, 48 h
HL-60 = test: Antiproliferative activity against human HL-60 cells assessed as cell growth inhibition incubated for 48 hrs by MTS assay; format: functional, cell-based; conditions: HL-60, 48 h
NB-4 = test: Antiproliferative activity against human NB-4 cells assessed as cell growth inhibition incubated for 48 hrs by MTS assay; format: functional, cell-based; conditions: NB-4, 48 h
OCI-AML2 = test: Antiproliferative activity against human OCI-AML2 cells assessed as cell growth inhibition incubated for 48 hrs by MTS assay; format: functional, cell-based; conditions: OCI-AML2, 48 h
OCI-AML-3 = test: Antiproliferative activity against human OCI-AML-3 cells assessed as cell growth inhibition incubated for 48 hrs by MTS assay; format: functional, cell-based; conditions: OCI-AML-3, 48 h
[18] = test system: Cystic fibrosis transmembrane conductance regulator (Homo sapiens), P13569 [UNDEFINED MUTATION]; test: In vivo activation of human […]-G542X mutant xenografted in mouse model assessed as induction of […] channel expression at 34 mg/kg administered daily; format: functional, organism-based
Cystic fibrosis transmembrane conductance regulator (Homo sapiens), P13569 [UNDEFINED MUTATION], sequence (P13569 whole entry, looked up): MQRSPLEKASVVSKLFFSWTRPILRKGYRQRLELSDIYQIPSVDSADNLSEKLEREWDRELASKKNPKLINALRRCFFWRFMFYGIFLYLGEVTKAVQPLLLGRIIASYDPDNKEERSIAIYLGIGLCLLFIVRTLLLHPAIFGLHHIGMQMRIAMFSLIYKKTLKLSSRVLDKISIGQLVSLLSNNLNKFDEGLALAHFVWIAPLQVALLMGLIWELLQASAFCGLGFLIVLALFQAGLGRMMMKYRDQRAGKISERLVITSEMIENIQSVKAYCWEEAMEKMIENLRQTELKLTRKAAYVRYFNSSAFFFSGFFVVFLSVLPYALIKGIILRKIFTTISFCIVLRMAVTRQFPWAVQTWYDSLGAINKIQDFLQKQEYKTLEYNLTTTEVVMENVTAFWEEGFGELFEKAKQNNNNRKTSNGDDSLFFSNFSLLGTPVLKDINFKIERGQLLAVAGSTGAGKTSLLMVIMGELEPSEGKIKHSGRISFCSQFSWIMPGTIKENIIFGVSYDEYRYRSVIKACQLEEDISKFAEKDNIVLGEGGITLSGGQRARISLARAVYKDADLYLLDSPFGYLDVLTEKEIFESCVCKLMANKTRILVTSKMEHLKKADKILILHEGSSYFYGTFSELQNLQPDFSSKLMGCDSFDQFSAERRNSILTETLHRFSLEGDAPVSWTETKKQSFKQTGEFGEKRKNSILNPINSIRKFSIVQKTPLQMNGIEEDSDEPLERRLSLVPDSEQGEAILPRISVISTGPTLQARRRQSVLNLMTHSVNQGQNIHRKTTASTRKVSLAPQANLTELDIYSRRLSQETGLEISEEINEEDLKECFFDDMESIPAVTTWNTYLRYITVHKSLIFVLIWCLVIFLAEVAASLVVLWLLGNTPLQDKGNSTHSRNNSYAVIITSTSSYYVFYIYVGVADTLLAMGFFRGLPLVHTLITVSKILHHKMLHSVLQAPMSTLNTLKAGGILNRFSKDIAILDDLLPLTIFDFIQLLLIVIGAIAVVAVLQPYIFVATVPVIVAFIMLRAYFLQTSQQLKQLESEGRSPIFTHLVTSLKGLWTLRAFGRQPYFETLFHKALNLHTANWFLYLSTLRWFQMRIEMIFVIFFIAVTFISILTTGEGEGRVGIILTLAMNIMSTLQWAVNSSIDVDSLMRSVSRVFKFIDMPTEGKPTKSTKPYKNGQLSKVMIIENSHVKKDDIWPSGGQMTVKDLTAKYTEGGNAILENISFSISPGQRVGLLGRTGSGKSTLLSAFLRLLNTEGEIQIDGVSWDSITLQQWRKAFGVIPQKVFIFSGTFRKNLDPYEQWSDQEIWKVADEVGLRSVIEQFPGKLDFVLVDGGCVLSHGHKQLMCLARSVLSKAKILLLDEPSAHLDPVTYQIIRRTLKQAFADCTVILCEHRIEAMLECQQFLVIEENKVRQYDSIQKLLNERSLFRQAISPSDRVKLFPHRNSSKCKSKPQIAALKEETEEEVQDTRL

H2K mdx = test: as §1; format: functional

Question: With `CONC(=O)[C@H]1[C@@H](O)[C@@]2(O)c3c(OC)cc(OC)cc3O[C@@]2(c2ccc(OC)cc2)[C@@H]1c1ccccc1` as the compound, how does the IC50 at 4 days [1] read?
Answer: 9 nM

Question: For `C/C1=C/C=C\C(=O)O[C@H](/C=C(C)/C=C/C=C/CN(C)C)Cc2csc(n2)CCCCC(=O)O[C@H](C)C1`, which IC50 [2] is on record?
Answer: 0.8 nM

Question: For `COc1ccc([C@@]23Oc4cc(OC)cc(OC)c4[C@@]24NC(C)=N[C@@]4(O)[C@H](C(=O)N(C)OC)[C@H]3c2ccccc2)cc1`, which IC50 at 4 days [1] is on record?
Answer: 2 nM

Question: What does the source list for `COc1cc(C[C@H]2NC(=O)[C@H](C(C)C)N(C)C(=O)/C=C\C[C@@H](OC)/C(C)=C/C=C/[C@@H](C)[C@@H](c3ccccc3)OC(=O)[C@H](C(C)C)NC2=O)ccc1O`?
Answer: IC50 (A549 [3]): 20 nM; IC50 (HCT-116 [4]): 49 nM

Question: With `CC[C@H](C)[C@H]1NC(=O)[C@@H]([C@H](O)C(C)C)NC(=O)[C@@H](C)N(C)C(=O)[C@H](C)N(C)C(=O)[C@H](CC(C)C)NC(=O)[C@H](CC(C)C)N(C)C(=O)[C@H](C)N(C)C1=O` as the compound, how does the EC50 (3T3-L1) read?
Answer: 20 nM

Question: And the IC50 (HCT-116 [5])?
Answer: 71 nM

Question: With `CC[C@H](C)[C@H]1NC(=O)[C@@H](NC(=O)[C@@H](CC(C)C)N(C)C(=O)[C@@H]2CCCN2C(C)=O)[C@@H](C)OC(=O)[C@H](Cc2ccc(OC)cc2)N(C)C(=O)[C@@H]2CCCN2C(=O)[C@H](CC(C)C)NC(=O)[C@@H](C)C(=O)[C@H](C(C)C)OC(=O)C[C@@H]1O` (Ac-P[dNMeL]T[X1]LP[NMeY](Me); ester 3-C) as the compound, how does the IC50 [6] read?
Answer: 100 nM

Question: For `CN1C(=O)N[C@H]2[C@@H]3NC(=O)c4ccc(Br)n4[C@@H]3C[C@]21O` [AGELASTATIN A], which Survival (L1210) is on record?
Answer: 63%

Question: With `O=C(O)c1cccc(-c2noc(-c3ccccc3F)n2)c1` [ATALUREN] as the compound, how does the Activity [7] read?
Answer: 20%

Question: For `CC[C@H](C)[C@H]1NC(=O)[C@@H](NC(=O)[C@@H](CC(C)C)NC)[C@@H](C)OC(=O)[C@H](Cc2ccc(OC)cc2)N(C)C(=O)[C@@H]2CCCN2C(=O)[C@H](CC(C)C)NC(=O)[C@@H](C)C(=O)[C@H](C(C)C)OC(=O)C[C@@H]1O` [DIDEMNIN A] (H-[dNMeL]T[X1]LP[NMeY](Me); ester 2-C), which IC50 [6] is on record?
Answer: 400 nM

Question: What about the IC50 (P388 [8]) of the same compound?
Answer: 10 nM

Question: And the IC50 (A549 [9])?
Answer: 12 nM

Question: What about the IC50 (HT-29) of the same compound?
Answer: 20 nM

Question: And the IC50 (SK-MEL-28)?
Answer: 20 nM

Question: What about the IC50 (P388 [10]) of the same compound?
Answer: 400 nM

Question: And the IC50 (P388 [11])?
Answer: 1000 nM

Question: And the IC50 (P388 [12]; p388)?
Answer: Not Active

Question: With `C=C1C[C@](OC)([C@H](O)C(=O)N[C@H]2OCO[C@H]3[C@@H]2O[C@H](C[C@H](O)CO)C(C)(C)[C@@H]3OC)O[C@H](C)[C@@H]1C` [MYCALAMIDE A] as the compound, how does the IC50 (HeLa [13]) read?
Answer: 5 nM

Question: What about the IC50 [14] of the same compound?
Answer: 1 nM

Question: Which EC50 (SARS-CoV-2 [15]) does the source give for `COC(=O)C[C@](O)(CCCC(C)(C)O)C(=O)O[C@@H]1C(OC)=C[C@]23CCCN2CCc2cc4c(cc2[C@H]13)OCO4` [OMACETAXINE MEPESUCCINATE] here?
Answer: 60 nM

Question: For `CC[C@H](C)[C@H]1NC(=O)[C@@H](NC(=O)[C@@H](CC(C)C)N(C)C(=O)[C@@H]2CCCN2C(=O)C(C)=O)[C@@H](C)OC(=O)[C@H](Cc2ccc(OC)cc2)N(C)C(=O)[C@@H]2CCCN2C(=O)[C@H](CC(C)C)NC(=O)[C@@H](C)C(=O)[C@H](C(C)C)OC(=O)C[C@@H]1O` [PLITIDEPSIN], which IC50 [6] is on record?
Answer: 500 nM

Question: And the IC50 (P388 [8])?
Answer: 0.2 nM

Question: What about the IC50 (A549 [9]) of the same compound?
Answer: 0.2 nM

Question: And the IC50 (HT-29)?
Answer: 0.5 nM

Question: And the IC50 (SK-MEL-28)?
Answer: 0.5 nM

Question: And the IC50 (P388 [10])?
Answer: 500 nM

Question: And the IC50 (P388 [11])?
Answer: 100 nM

Question: What about the IC50 (P388 [12]; Mus musculus, P388, 72 h, read-out: IC50) of the same compound?
Answer: > 1000 nM

Question: For `NC(=O)c1ncn([C@@H]2O[C@H](CO)[C@@H](O)[C@H]2O)n1` [RIBAVIRIN], which EC50 (SARS-CoV-2 [16]) is on record?
Answer: 110000 nM

Question: Which IC50 (HeLa [17]) does the source give for `COc1ccc([C@@]23Oc4cc(OC)cc(OC)c4[C@]2(O)[C@H](O)[C@H](C(=O)N(C)C)[C@H]3c2ccccc2)cc1` [ROCAGLAMIDE] here?
Answer: 100 nM

Question: With `COC(=O)[C@H]1[C@@H](O)[C@@]2(O)c3c(OC)cc(O[C@@H]4O[C@@H]([C@H](O)CO)CO[C@H]4OC)cc3O[C@@]2(c2ccc(OC)cc2)[C@@H]1c1ccccc1` [SILVESTROL] as the compound, how does the IC50 (HeLa [17]) read?
Answer: 20 nM

Question: What about the IC50 (U-937) of the same compound?
Answer: 4 nM

Question: What about the IC50 (HL-60) of the same compound?
Answer: 4 nM

Question: What about the IC50 (NB-4) of the same compound?
Answer: 4 nM

Question: And the IC50 (OCI-AML2)?
Answer: 4 nM

Question: What about the IC50 (OCI-AML-3) of the same compound?
Answer: 4 nM

Question: With GENTAMICIN as the compound, how does the Activity [18] read?
Answer: 10%

Question: And the Activity (H2K mdx)?
Answer: 10%
